Paper PMC7827406, “Structure–Activity Relationship (SAR) Study of Spautin-1 to Entail the Discovery of Novel NEK4 Inhibitors” (International Journal of Molecular Sciences, 2021)
Read-outs that look alike come from different tables or passages of the source.

How the values were obtained:
Test in all cases: biochemical
Parameters in all cases: Eurofins KinaseProfiler full panel at Km ATP, residual kinase activity (%) relative to DMSO
Txk(h) = target: T1, Txk(h) (Homo sapiens, UniProt P42681)
T1 sequence (P42681 1-527): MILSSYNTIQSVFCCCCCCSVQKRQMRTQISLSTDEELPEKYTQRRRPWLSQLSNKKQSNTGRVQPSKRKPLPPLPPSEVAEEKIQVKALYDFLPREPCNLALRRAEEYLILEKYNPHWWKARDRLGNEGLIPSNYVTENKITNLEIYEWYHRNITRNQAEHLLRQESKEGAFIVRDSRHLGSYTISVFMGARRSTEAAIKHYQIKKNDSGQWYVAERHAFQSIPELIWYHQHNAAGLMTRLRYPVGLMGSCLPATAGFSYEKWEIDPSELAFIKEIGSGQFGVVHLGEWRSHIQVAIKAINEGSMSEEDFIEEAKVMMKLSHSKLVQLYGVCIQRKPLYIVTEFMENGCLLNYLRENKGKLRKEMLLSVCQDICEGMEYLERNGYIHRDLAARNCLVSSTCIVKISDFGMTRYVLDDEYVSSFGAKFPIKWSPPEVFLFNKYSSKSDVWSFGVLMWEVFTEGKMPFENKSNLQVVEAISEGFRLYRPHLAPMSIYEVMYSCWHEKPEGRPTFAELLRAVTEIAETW
Experimental: (§1) Eurofins performed a “Full KP Panel [Km ATP], KinaseProfile” which contains 429 radiometric kinase activity assays. The remaining kinase activity (%) was determined after treatment with the compounds at a concentration of 10 µM (Cfr. supporting information). Since we could not confirm the interaction between Spautin-1 analogues and USP13, a kinase screening was performed using a set of four compounds (Spautin-1 and three analogues) to discover off-targets and identify kinases that are potentially responsible for the reduction in cell viability observed in our screen (Table 2). The KINOMEscan from Eurofins was performed (see Table S1). This screen consists of a competitive binding assay in which the DNA-tagged kinase is incubated with one of the compounds in the presence of immobilized active site binding ligands. Binding of the compounds to the kinase hampers the binding of the kinase to the ligands and this inhibition was quantified by qPCR. The residual kinase activity, which represents the percentage of kinase attached to the immobilized ligands, was determined for 428 kinases at a standard screening concentration of 10 µM of the compounds dissolved in DMSO [61].

TNIK(h) = TNIK(h) (Homo sapiens, UniProt Q9UKE5)
Experimental: as §1

Rse(h) = target: T2, Rse(h) (Homo sapiens, UniProt Q06418)
T2 construct: gene TYRO3
T2 sequence (Q06418 1-890): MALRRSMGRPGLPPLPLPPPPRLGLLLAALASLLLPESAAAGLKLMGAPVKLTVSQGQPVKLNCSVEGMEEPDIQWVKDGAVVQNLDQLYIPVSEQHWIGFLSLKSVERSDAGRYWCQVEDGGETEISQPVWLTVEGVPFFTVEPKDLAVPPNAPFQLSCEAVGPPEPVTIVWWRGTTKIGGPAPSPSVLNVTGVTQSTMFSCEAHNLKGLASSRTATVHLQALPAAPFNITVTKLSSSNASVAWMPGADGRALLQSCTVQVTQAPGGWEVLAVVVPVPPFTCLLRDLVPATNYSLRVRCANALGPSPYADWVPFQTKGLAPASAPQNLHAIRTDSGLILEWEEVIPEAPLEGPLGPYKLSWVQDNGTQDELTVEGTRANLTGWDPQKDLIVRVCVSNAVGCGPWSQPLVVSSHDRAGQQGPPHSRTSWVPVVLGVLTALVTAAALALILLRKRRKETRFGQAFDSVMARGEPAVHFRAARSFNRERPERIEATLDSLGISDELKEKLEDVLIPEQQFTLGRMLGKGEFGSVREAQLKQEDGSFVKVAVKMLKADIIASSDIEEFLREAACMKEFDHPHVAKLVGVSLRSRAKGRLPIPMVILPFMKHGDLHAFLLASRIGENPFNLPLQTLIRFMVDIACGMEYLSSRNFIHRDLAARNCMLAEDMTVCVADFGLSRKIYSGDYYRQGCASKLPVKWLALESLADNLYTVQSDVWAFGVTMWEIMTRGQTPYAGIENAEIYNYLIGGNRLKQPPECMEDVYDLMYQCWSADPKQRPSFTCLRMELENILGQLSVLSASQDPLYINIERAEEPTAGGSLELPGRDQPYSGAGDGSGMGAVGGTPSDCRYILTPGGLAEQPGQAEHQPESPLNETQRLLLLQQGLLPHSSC
Experimental: as §1

PIP5K1a(h) = PIP5K1a(h) (Homo sapiens, UniProt Q99755)
Experimental: as §1

MAPKAP-K2(h) = target: T3, MAPKAP-K2(h) (Homo sapiens, UniProt P49137)
T3 construct: gene MAPKAPK2
Experimental: as §1

[1] = read-out: Residual activity (%) Spautin-1 5aa
[2] = read-out: Residual activity (%) 5as
[3] = read-out: Residual activity (%) 5at
[4] = read-out: Residual activity (%) 5ay

Chain of TNIK(h) (Q9UKE5 whole entry): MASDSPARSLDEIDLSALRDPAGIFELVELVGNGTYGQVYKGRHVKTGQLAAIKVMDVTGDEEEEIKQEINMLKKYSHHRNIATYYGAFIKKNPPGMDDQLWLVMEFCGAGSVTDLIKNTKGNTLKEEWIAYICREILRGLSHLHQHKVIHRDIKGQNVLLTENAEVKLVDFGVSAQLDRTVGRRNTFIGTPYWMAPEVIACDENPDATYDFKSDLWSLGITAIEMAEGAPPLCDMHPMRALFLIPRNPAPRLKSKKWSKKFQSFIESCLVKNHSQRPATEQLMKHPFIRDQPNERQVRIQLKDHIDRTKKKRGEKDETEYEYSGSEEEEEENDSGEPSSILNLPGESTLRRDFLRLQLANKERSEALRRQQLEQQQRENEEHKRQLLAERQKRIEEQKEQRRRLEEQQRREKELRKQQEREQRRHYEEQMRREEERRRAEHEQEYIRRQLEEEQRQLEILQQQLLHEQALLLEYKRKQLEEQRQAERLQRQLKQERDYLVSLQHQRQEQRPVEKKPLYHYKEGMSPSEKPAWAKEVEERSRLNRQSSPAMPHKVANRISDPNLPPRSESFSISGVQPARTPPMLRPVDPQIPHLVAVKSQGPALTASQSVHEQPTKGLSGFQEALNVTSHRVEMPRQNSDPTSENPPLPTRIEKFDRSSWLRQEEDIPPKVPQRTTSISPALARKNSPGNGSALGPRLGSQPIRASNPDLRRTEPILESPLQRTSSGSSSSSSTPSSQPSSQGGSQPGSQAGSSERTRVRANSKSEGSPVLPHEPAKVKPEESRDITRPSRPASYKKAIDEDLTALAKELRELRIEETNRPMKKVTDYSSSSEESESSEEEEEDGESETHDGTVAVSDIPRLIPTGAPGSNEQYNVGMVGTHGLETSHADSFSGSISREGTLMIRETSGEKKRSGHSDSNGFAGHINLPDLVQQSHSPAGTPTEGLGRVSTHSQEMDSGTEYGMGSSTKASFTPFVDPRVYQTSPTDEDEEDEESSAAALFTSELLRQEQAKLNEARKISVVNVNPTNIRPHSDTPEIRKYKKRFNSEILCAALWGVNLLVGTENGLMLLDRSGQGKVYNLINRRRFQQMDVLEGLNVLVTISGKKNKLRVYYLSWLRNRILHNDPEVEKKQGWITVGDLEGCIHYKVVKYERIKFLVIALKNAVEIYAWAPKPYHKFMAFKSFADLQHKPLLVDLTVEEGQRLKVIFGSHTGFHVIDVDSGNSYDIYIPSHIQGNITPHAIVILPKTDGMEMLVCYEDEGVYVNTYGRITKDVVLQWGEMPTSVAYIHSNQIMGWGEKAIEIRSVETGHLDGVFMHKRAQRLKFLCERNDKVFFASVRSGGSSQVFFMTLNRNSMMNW
Chain of PIP5K1a(h) (Q99755 whole entry): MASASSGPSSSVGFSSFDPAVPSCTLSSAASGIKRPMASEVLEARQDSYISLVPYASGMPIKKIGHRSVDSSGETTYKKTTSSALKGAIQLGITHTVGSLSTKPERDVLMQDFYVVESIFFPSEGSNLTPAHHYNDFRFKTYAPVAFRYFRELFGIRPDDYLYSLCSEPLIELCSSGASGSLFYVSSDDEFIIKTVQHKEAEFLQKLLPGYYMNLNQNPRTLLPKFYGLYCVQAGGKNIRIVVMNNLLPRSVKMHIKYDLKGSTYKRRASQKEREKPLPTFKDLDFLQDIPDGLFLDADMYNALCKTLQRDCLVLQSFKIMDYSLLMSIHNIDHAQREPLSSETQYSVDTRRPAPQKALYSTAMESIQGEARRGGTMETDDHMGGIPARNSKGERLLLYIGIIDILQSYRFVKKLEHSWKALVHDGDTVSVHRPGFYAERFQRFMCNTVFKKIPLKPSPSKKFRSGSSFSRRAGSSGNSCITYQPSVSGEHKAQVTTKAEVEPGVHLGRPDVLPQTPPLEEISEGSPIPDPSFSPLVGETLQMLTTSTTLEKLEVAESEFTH
T3 sequence (P49137 whole entry): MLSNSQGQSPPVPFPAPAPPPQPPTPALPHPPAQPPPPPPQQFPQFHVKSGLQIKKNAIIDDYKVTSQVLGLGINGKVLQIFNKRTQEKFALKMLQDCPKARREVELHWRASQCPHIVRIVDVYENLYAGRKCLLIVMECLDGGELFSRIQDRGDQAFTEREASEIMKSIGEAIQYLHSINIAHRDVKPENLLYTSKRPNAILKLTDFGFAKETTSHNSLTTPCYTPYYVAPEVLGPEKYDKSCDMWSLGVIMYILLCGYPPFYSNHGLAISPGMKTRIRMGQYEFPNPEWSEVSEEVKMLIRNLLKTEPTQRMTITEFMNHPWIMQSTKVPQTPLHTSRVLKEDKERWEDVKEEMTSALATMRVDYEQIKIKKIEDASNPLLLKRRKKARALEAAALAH

## Fc1ccc(CNc2ncnc3ccc(F)cc23)cc1 [5aa, 6-Fluoro-N-(4-fluorobenzyl)-4-Quinazolinamine]
Txk(h); [1]
  remaining activity at 10 µM: 92%
TNIK(h); [1]
  remaining activity at 10 µM: 72%
Rse(h); [1]
  remaining activity at 10 µM: 104%
PIP5K1a(h); [1]
  remaining activity at 10 µM: 104%
MAPKAP-K2(h); [1]
  remaining activity at 10 µM: 79%

## Fc1ccc(CCNc2ncnc3ccc(F)cc23)cc1 [5as, 6-Fluoro-N-[2-(4-Fluorophenyl)Ethyl]-4-Quinazolinamine]
Txk(h); [2]
  remaining activity at 10 µM: 83%
TNIK(h); [2]
  remaining activity at 10 µM: 83%
Rse(h); [2]
  remaining activity at 10 µM: 100%
PIP5K1a(h); [2]
  remaining activity at 10 µM: 103%
MAPKAP-K2(h); [2]
  remaining activity at 10 µM: 85%

## Fc1ccc2ncnc(NCCc3ccc(Cl)cc3)c2c1 [5at, N-[2-(4-Chlorophenyl)Ethyl]-6-Fluoro-4-Quinazolinamine]
Txk(h); [3]
  remaining activity at 10 µM: 82%
TNIK(h); [3]
  remaining activity at 10 µM: 63%
Rse(h); [3]
  remaining activity at 10 µM: 103%
PIP5K1a(h); [3]
  remaining activity at 10 µM: 104%
MAPKAP-K2(h); [3]
  remaining activity at 10 µM: 97%

## COc1ccc2ncnc(Nc3cccc(F)c3)c2c1 [5ay, N-(3-Fluorophenyl)-6-Methoxy-4-Quinazolinamine]
Txk(h); [4]
  remaining activity at 10 µM: 85%
TNIK(h); [4]
  remaining activity at 10 µM: 65%
Rse(h); [4]
  remaining activity at 10 µM: 107%
PIP5K1a(h); [4]
  remaining activity at 10 µM: 101%
MAPKAP-K2(h); [4]
  remaining activity at 10 µM: 80%
